Columns and labels:
[1] = Stability screening of freebase and selected salts of Formula I, 40° C. and 75% RH, weekly HPLC over 4 weeks
[2] = Isothermic (25° C.) DVS analysis of salts of the compound of Formula I; format: physicochemical
From the text: (FIG. 16D). […] Some hysteresis was observed. […] (FIG. 16C). […] (FIG. 16D).
(FIG. 18A). […] (FIG. 18B). […] Some hysteresis was observed. […] An overlay of FTIR spectra of the L- and D-malic acid salts is shown in FIG. 18F. ^1H NMR spectra of the L- and D-malic salts in DMSO-d^6 are shown in FIG. 18G-18H, respectively.

[3] = Second solubility study of the L-malic acid salt at elevated temperatures (60° C., 70° C.); format: physicochemical; conditions: for Solids dissolve at 70° C.?: 70° C. for approximately 3.0 hours
[4] = Solubility test of the L-malic acid salt at room temperature; format: physicochemical; conditions: DMSO, two lots
[5] = Dynamic vapor sorption (DVS) of the compound of Formula II; format: physicochemical
Description: Approximately 10 mg of sample was placed into a mesh vapor sorption balance pan and loaded into a DVS-1 dynamic vapor sorption balance by Surface Measurement Systems. The sample was subjected to a ramping profile from 40-90% relative humidity (RH) at 10% increments, maintaining the sample at each step until a stable weight had been achieved (99.5% step completion). After completion of the sorption cycle, the sample was dried using the same procedure to 0% RH and then a second sorption cycle back to 40% RH. The weight change during the sorption/desorption cycles were plotted, allowing for the hygroscopic nature of the sample to be determined. XRPD analysis was then carried out on any solid retained.
The material appeared highly crystalline by XRPD (FIG. 62A). […] This event was followed by thermal degradation. […] (FIG. 62B).

[6] = Solvent solubility screen of the compound of Formula II; format: physicochemical; conditions: 40 °C, thermodynamic from solid, read-out: Approximate solubility
Description: A solvent solubility screen was conducted in 32 solvent systems as follows.
Between each addition, the mixture was checked for dissolution. If no dissolution was apparent, the mixture was heated to around 40° C. and checked again. This procedure was continued until dissolution was observed or until 100 volumes of solvent had been added. Undissolved material from the solubility screen was isolated and analyzed by XRPD.

For COc1ccc(CN2CCN(c3ccc(-c4cc(-c5cnn(C)c5)cn5ncc(C#N)c45)cn3)CC2)cn1.O=C(O)C[C@H](O)C(=O)O [L-malic acid salt], the Absolute % change ([1]; 40° C. and 75% RH, T = 0 to 4 weeks) was 0.5%, the “Stability, HPLC analysis, T = 1 week” value ([1]; stored at 40° C. and 75% RH, 1 week) was 97.7% and the “Stability, HPLC analysis, T = 2 weeks” value ([1]; stored at 40° C. and 75% RH, 2 weeks) was 97.4%. The “Stability, HPLC analysis, T = 3 weeks” value ([1]; stored at 40° C. and 75% RH, 3 weeks) was 97.4%, the “Stability, HPLC analysis, T = 4 weeks” value ([1]; stored at 40° C. and 75% RH, 4 weeks) was 97.3% and the “Stability, HPLC analysis, T = 0” value ([1]; stored at 40° C. and 75% RH, T = 0) was 97.8%. The “Mass gain by DVS” value ([2]; 80% relative humidity, 25° C.) was “approximately 2.8%”, the “Hygroscopicity by DVS (in words)” value ([2]; isothermic 25° C.) was “hygroscopic” and the “Deliquescence upon removal from the DVS chamber” value ([2]; sample remained a free-flowing powder) was “no observable deliquescence”. The “Solids dissolve at 60° C.?” value ([3]; 60° C. for 3.0 hours, solvent 0.1M HCl, Yes) was “Yes (>13.4 mg/mL)”, the “Solids dissolve at 60° C.?” value ([3]; 60° C. for 3.0 hours, solvent 2-methyl THF) was “No” and the “Solids dissolve at 60° C.?” value ([3]; 60° C. for 3.0 hours, solvent ACN) was “No”. For the same compound, the “Solids dissolve at 60° C.?” value ([3]; 60° C. for 3.0 hours, solvent Acetone) was “No”, the “Solids dissolve at 60° C.?” value ([3]; 60° C. for 3.0 hours, solvent DCE) was “No” and the “Solids dissolve at 60° C.?” value ([3]; 60° C. for 3.0 hours, solvent DMSO, Yes) was “Yes (>36 mg/mL)”. For the same compound, the “Solids dissolve at 60° C.?” value ([3]; 60° C. for 3.0 hours, solvent EtOAc) was “No”, the “Solids dissolve at 60° C.?” value ([3]; 60° C. for 3.0 hours, solvent EtOH) was “No” and the “Solids dissolve at 60° C.?” value ([3]; 60° C. for 3.0 hours, solvent IPA) was “No”. For the same compound, the “Solids dissolve at 60° C.?” value ([3]; 60° C. for 3.0 hours, solvent MEK) was “No”, the “Solids dissolve at 60° C.?” value ([3]; 60° C. for 3.0 hours, solvent MTBE) was “No” and the “Solids dissolve at 60° C.?” value ([3]; 60° C. for 3.0 hours, solvent MeOH) was “No”. For the same compound, the “Solids dissolve at 60° C.?” value ([3]; 60° C. for 3.0 hours, solvent Toluene) was “No”, the “Solids dissolve at 60° C.?” value ([3]; 60° C. for 3.0 hours, solvent iPAc) was “No” and the “Solids dissolve at 60° C.?” value ([3]; 60° C. for 3.0 hours, solvent water) was “No”. The “Solids dissolve at 70° C.?” value ([3]; solvent 2-methyl THF) was “No”, the “Solids dissolve at 70° C.?” value ([3]; solvent ACN) was “No” and the “Solids dissolve at 70° C.?” value ([3]; solvent DCE) was “No”. For the same compound, the “Solids dissolve at 70° C.?” value ([3]; solvent DMSO, Yes) was “Yes (>56 mg/mL)”, the “Solids dissolve at 70° C.?” value ([3]; solvent EtOAc) was “No” and the “Solids dissolve at 70° C.?” value ([3]; solvent EtOH) was “No”. The “Solids dissolve at 70° C.?” value ([3]; solvent IPA) was “No”, the “Solids dissolve at 70° C.?” value ([3]; solvent MEK) was “No” and the “Solids dissolve at 70° C.?” value ([3]; solvent MTBE) was “No”. The “Solids dissolve at 70° C.?” value ([3]; solvent Toluene) was “No”, the “Solids dissolve at 70° C.?” value ([3]; solvent iPAc) was “No” and the “Solids dissolve at 70° C.?” value ([3]; solvent water) was “No”. For the same compound, the “Solids dissolve at 60° C.?” value ([3]; solvent THF, cell says 65° C.) was roughly 65 °C almost 12.3 mg/mL and the solubility [4] was 14000 to 15000 µg/mL.
For COc1ccc(CN2C3CC2CN(c2ccc(-c4cc(OCC(C)(C)O)cn5ncc(C#N)c45)cn2)C3)cn1 [compound of Formula II, 6-(2-hydroxy-2-methylpropoxy)-4-(6-(6-((6-methoxypyridin-3-yl)methyl)-3,6-diazabicyclo[3.1.1]heptan-3-yl)pyridin-3-yl)pyrazolo[1,5-a]pyridine-3-carbonitrile], the “Hygroscopicity by DVS (in words)” value [5] was “moderately hygroscopic”, the “Weight increase by DVS” value ([5]; 90% RH) was “around 3.6%” and the “Change in Form post-DVS” value ([5]; XRPD after DVS) was “No change in Form”. The solubility ([6]; 1-Butanol, organic solvent or mixture) was less than 5000 µg/mL, the solubility ([6]; 1-Propanol, organic solvent or mixture) was less than 5000 µg/mL and the solubility ([6]; organic solvent or mixture, 1,4-Dioxane, (P) partial solubility at 100 volumes) was less than 5000 µg/mL. The solubility ([6]; organic solvent or mixture, 2-Ethoxyethanol, (P) partial solubility at 100 volumes) was less than 5000 µg/mL, the solubility ([6]; organic solvent or mixture, 2-Methyl THF, (P) partial solubility at 100 volumes) was less than 5000 µg/mL and the solubility ([6]; organic solvent or mixture, Anisole, (P) partial solubility at 100 volumes) was less than 5000 µg/mL. The solubility ([6]; organic solvent or mixture, CHCl3, (P) partial solubility at 100 volumes) was less than 5000 µg/mL, the solubility ([6]; organic solvent or mixture, Cyclohexanone, (P) partial solubility at 100 volumes) was less than 5000 µg/mL and the solubility ([6]; organic solvent or mixture, DCM, (P) partial solubility at 100 volumes) was less than 5000 µg/mL. The solubility ([6]; organic solvent or mixture, Nitromethane, (P) partial solubility at 100 volumes) was less than 5000 µg/mL, the solubility ([6]; organic solvent or mixture, THF, (P) partial solubility at 100 volumes) was less than 5000 µg/mL and the solubility ([6]; Acetone, organic solvent or mixture) was less than 5000 µg/mL. For the same compound, the solubility ([6]; Acetone:Water (50%), aqueous with cosolvent or surfactant or cyclodextrin) was less than 5000 µg/mL, the solubility ([6]; Cyclohexane, organic solvent or mixture) was less than 5000 µg/mL and the solubility ([6]; DMSO, organic solvent or mixture) was 41000 µg/mL. For the same compound, the solubility ([6]; EtOAc, organic solvent or mixture) was less than 5000 µg/mL, the solubility ([6]; Ethanol, organic solvent or mixture) was less than 5000 µg/mL and the solubility ([6]; IPA, organic solvent or mixture) was less than 5000 µg/mL. For the same compound, the solubility ([6]; MEK, organic solvent or mixture) was less than 5000 µg/mL, the solubility ([6]; MIBK, organic solvent or mixture) was less than 5000 µg/mL and the solubility ([6]; MeCN:Water (20%), aqueous with cosolvent or surfactant or cyclodextrin) was 5000 µg/mL. For the same compound, the solubility ([6]; MeOAc, organic solvent or mixture) was less than 5000 µg/mL, the solubility ([6]; NMP, organic solvent or mixture) was 17000 µg/mL and the solubility ([6]; THF:Water (1%), organic solvent or mixture) was 48000 µg/mL. The solubility ([6]; Water, water) was less than 5000 µg/mL.

From patent US10584124B2, “Crystalline forms” (Array BioPharma Inc., priority 2017, dated 2020)
